# Data: patent US7341988B2, “Method of treating influenza with geranyl-geranyl acetone” (Eisai R&D Management Co., Ltd., priority 2001, dated 2008)
# Legend:
# [1] = tested on: influenza A virus, A/PR/8/34 (H1 N1) strain; test: Viral replication in the lungs of infected mice, plaque assay using MDCK; assay type: in vivo, BALB/cN mice
# Description: (§1) The virus used in the present invention was the influenza A virus, A/PR/8/34 (H1 N1) strain (hereinafter referred to “PR8”); the mice were 6-week old female SPF (specific pathogen-free) BALB/cN mice (Charles River Japan Co., Ltd.); and the cells were A549 cells derived from human alveolar epithelial cell.
# (§2) The mice were randomly divided into the following 4 treatment groups, and tested: (1) Control group; intranasl infection with PR8 (2×10^5 PFU) (2) 150G-PR8; group; after administration of 150 mg/kg of GGA, infected with the same amount of PR8 in the same manner as the control group; (3) 75G-PR8 group; after administration of 75 mg/kg of GGA, infected with the same amount of PR8 in the same manner as the control group; (4) 15G-PR8 group; after administration of 15 mg/kg of GGA, infected with the same amount of PR8 in the same manner as the control group. The aforementioned group (1) refers to the control group, and groups (2) to (4) refer to the GGA treated group prior to infection. The GGA treated groups were orally administered GGA every 12 hours for 3 weeks.
# FIG. 2 indicates the effects of GGA on viral replication in the lungs of the mice of the various groups after infection by an influenza virus according to the present invention. Here, the assay of virus in the lung was conducted by plaque assay using MDCK.
# [2] = tested on: influenza A virus, A/PR/8/34 (H1 N1) strain; assay type: cell-based; conditions: A549 cells
# [3] = tested on: HSP70; assay type: in vivo, BALB/c mice
# [4] = tested on: interferon-inducible double-stranded RNA activated protein kinase (PKR); test: PKR mRNA expression in A549 cells, RT-PCR; assay type: cell-based, human; conditions: β-actin control
# Description: FIG. 13 indicates the results of using RT-PCR to assay the mRNA expression of interferon-inducible double-stranded RNA activated protein kinase (hereinafter referred to “PKR”), which has an antiviral action. […] It should be noted that β-actin in this diagram was used was a control.
# [5] = tested on: M×A genes; test: Expression of antiviral gene MxA in PR8-infected A549 cells, northern blot; assay type: cell-based, human
# Description: Studied next were the effects of GGA treatment on the expression of antiviral genes after infection by PR8, and the results are indicated in FIGS. 12 and 13. […] It should be noted that the GAPDH in FIG. 12 was used as a control in the same way as previously described in FIG. 5.
# [6] = tested on: HSP70; test: HSP induction in A549 cells (northern blot, 35S-methionine pulse labeling, western blot); assay type: cell-based, human
# [7] = tested on: influenza A virus, A/PR/8/34 (H1 N1) strain; test: Weight loss in mouse PR8 infection model; assay type: in vivo, BALB/cN mice; conditions: GGA treated groups (oral every 12 hours for 3 weeks before infection) except the 75G-PR8 group; control weight loss reaching 30%
# Protocol: FIG. 1 indicates an improvement trend of clinical infection symptoms caused by administration of GGA in a mouse PR8 infection model according to the present invention. BALC/c mice that used in the present invention were randomly allotted into the following 4 groups: (1) Control group (n=30) is transnasally administered 2×10^5 PFU of A/PR/8/34; the GGA pre-treatment groups were orally administered GGA every 12 hours for 3 weeks in doses of: (2) 150 mg/kg (150G-PR8 group; n=30), (3) 75 mg/kg (75G-PR8 group; n=30), (4) 15 mg/kg (15G-PR8 group; n=30) and were infected with PR8 after 3 weeks in the same manner. The body weights of the mice were measured 1, 2, 3, 4, 7, and 10 days after infection;
# as §1
# First, the aforementioned mice were raised in a cage for each 4 mice under clean conditions and allowed free access to sterilized feed and water. […]
# [8] = tested on: viral nucleoprotein (NP) of PR8; test: Viral nucleoprotein (NP) synthesis in the lungs of infected mice, Western blot and EIA; assay type: in vivo, BALB/cN mice; conditions: GGA treated groups compared with control group
# Description: as §1, §2
# FIG. 3 indicates the results of the effects of GGA on viral nucleoprotein (called “NP” hereinafter) synthesis in the lungs of the mice of the various groups after infection by an influenza virus according to the present invention. The amount of NP synthesis was measured with Western blot analysis. […]
# [9] = GGA treatment (+), pulse labeling
smiles,measurement,setting,value
"CC(=O)CC/C=C(\C)CC/C=C(\C)CC/C=C(\C)CCC=C(C)C [GGA, 6, 10, 14, 18-tetramethyl-5,9, 13, 17-nonadecatetraen-2-one]",time after infection at which virus was completely eliminated from the lungs,[1]; 75G-PR8 group (75 mg/kg GGA),4 days
same,time after infection at which virus was completely eliminated from the lungs,[1]; 150G-PR8 group (150 mg/kg GGA),3 days
same,growth of virus in the lungs,"[1]; GGA 150, 75, 15 mg/kg oral every 12 hours for 3 weeks before PR8 infection, vs control",suppressed in a GGA dose-dependent manner
same,HSP70 synthesis in the early period of infection,[2]; [9],enhancement of HSP70 synthesis was observed
same,time after infection at which NP synthesis began,[2]; [9],> 12 h
same,NP synthesis capacity compared to GGA treatment (−),"[2]; PR8 infection, pulse labeling",suppressed
same,"capacity to synthesize viral proteins of PR8 (HA, NP, M1, NS1)",[2]; compared to the control,notably suppressed
same,duration of HSP70 expression after PR8 infection,"[2]; densitometric analysis at 3, 6, 12, 24 hours",up to 12 hours
same,time after infection up to which expression of NP was prevented,[2]; western blot,up to 12 hours
same,amount of HSP70 mRNA expressed in the lungs after PR8 infection,"[3]; […], GAPDH control",dependent on the amount of GGA administered
same,"expression of HSP70 in the lungs, GGA alone","[3]; mouse, in vivo",induced in a dose dependent manner
same,expression of PKR mRNA,[4],enhanced expression
same,expression of M×A genes,"[5]; A549 cells after infection with PR8, GAPDH control",enhanced
same,expression of HSP mRNA after PR8 infection,"[5]; A549 cells after infection with PR8, northern blot",enhanced
same,time of peak HSP70 expression after administering GGA,"[6]; A549 cells, western blot with HSP70 antibodies",6 h
same,expression of HSP70 mRNA in A549 cells,"[6]; northern blot, GAPDH control",induced in a concentration and time dependent manner
same,weight loss caused by PR8 infection,[7],almost no weight loss
same,"NP synthesis in the lungs, Western blot",[8],suppression of NP synthesis in a dose dependent manner
same,"capacity to synthesize NP after infection with PR8, EIA",[8],notably reduced
